Tests used:
[1] = Log D7.4 (1-octanol / HEPES buffer pH 7.4); type: physicochemical; details: HEPES buffer pH 7.4 / 1-octanol, mean of triplicate; for logD at 1 h: 1-octanol / HEPES buffer
Protocol: This solution was diluted to nine known concentration solutions (1200, 800, 400, 120, 80, 40, 12, 8, and 4 μM) in MeCN. Each solution was analyzed by HPLC, and a calibration curve was plotted using the peak areas from the standard concentrations. 20 μL of the 10 mM DMSO stock solution of each compound was partitioned between […] of buffer (200 mM HEPES, 150 mM NaCl, pH 7.4) and […] of 1-octanol. The mixture was mixed for 1 h. Each layer was injected separately onto a Shimadzu LC-20AB HPLC system (Solvent system: gradient from 15% MeCN/85% H2O to 95% MeCN/5% H2O (+0.1% formic acid) over 13 min; Column, Shimadzu C18, […], 50×4.6 mm; UV, 254 nm). The equilibrium solubility in the buffer layer and the 1-octanol layer of test compounds was determined by quantifying the concentration of test solutions against the calibration curve. Experiments were run in triplicate, and results were tabulated and reported as mean. […] Thus, including an electron withdrawing group at position R^4 results in improved pharmacokinetics, such as an improved ability to cross cell membranes.

[2] = biological target: Kelch domain of KEAP1 (Homo sapiens (Human), UniProt Q14145); assay: Fluorescence anisotropy assay of KEAP1-NRF2 interaction inhibition; type: binding; details: for binding affinity (in words): qualitative statement on the fluorescence anisotropy results
Protocol: The IC50 of the compounds for inhibiting the interaction of a fluorescent NRF2 peptide and the Kelch domain of KEAP1 was determined using fluorescence anisotropy. See Inoyama et al., J. Biomol.
Test compounds' ability to inhibit the KEAP1-NRF2 interaction were assayed using the Kelch domain of KEAP1 and a fluorescein-labeled 9-mer peptide containing the ETGE motif of the Neh2 domain of NRF2. The experiments were performed in triplicate, and sigmoidal concentration-response curves were fitted to the data using Graphpad Prism 6.1 software.

[3] = Microsomal stability study; type: in vitro ADME; details: human liver microsomes in buffer, 20 min
From the text: LC-MS grade acetonitrile (MeCN), methanol (MeOH), formic acid, and biology grade DMSO were purchased from Fisher Scientific (Pittsburgh, Pa.). LC-MS grade water was generated using a Barnstead Nanopure Diamond water system (Thermo Scientific, Pittsburgh, Pa.). All other reagents, if not specified, were purchased from Sigma-Aldrich (Saint Louis, Mo.). Pooled human liver microsomes and mouse liver microsomes were purchased from Sekisui XenoTech (Kansas City, Kans.). Preparation of Standard. The initial stock solutions of test compounds were prepared in DMSO at 10 mM, and then diluted with MeOH to 200 μM before use. All stock solutions were stored at −20° C. Liver microsomes were aliquoted upon arrival and stored at −80° C. Samples were analyzed on a Shimadzu 8040 triple-quadrupole mass spectrometer (Shimadzu, Addison, Ill.) equipped with electrospray ion source and Shimadzu Nexera XR UHPLC system. Mobile phase A contained water with 0.025% (v/v) FA, and mobile phase B consisted of MeCN with 0.1% (v/v) FA. Five microliters of sample was injected. Study compounds were eluted on a Kinetex C18 column (3.0×50 mm, 2.6 μm; Phenomenex, Torrance, Calif.) at 500 μL/min using a gradient program: mobile phase B started and maintained at 15% for 1 min, then increased to 95% in 4 min. Nebulizing gas flow and drying gas flow were set to 2 and 15 L/min. DL temperature, heat block temperature, and ion spray voltage were maintained at 300° C., 450° C. and 4500 V, respectively.

[4] = system: NRF2; assay: NRF2 stabilization by Western Blot in HaCaT keratinocytes; type: cell-based, human; details: HaCaT cells, 10 μM compound, 6 h, relative to vehicle (DMSO) control
Protocol: (§1) Molecules that block the degradatior of NRF2 serve as NRF2 activators. This has the effect of stabilizing NRF2 protein levels and upregulating target gene levels, such as NQO1. […] CDDO is a positive control compound that activates NRF2 through an electrophilic mechanism. […] HaCat Cells were treated with 10 μM compound unless otherwise indicated.
(§2) Spontaneously immortalized human keratinocytes (HaCaT cell line) were grown in Dubecco's modified Eagle's medium (DMEM) with 10% fetal bovine serum and 1% antibiotics. […] Cells were lysed in a 20 mM Tris (pH 7.5) buffer containing 150 mM NaCl, 1 mM EDTA, 1 mM EGTA, 1% Triton X-100, 2.5 mM sodium pyrophosphate, 1 mM Na3VO4, 5 mM β-glycerophosphate, and 1 μg/mL leupeptin. Equal amount of protein (˜40 μg) was separated on a 10% SDS-PAGE, blotted on the membrane, and probed with antiNRF2, or anti-NQO1 antibody. […] CDDO is a positive control compound that activates NRF2 through an electrophilic mechanism.

[5] = system: NADPH quinone oxidoreductase (NQO1); assay: NRF2 target gene activation: NQO1 protein levels by Western Blot in HaCaT keratinocytes; type: cell-based, human; details: HaCaT cells, 10 μM compound, 6 h
Protocol: as §1, §2

[6] = fluorescent NRF2 peptide and Kelch domain of KEAP1, fluorescence anisotropy

Sequence of Kelch domain of KEAP1 (Q14145 321-609): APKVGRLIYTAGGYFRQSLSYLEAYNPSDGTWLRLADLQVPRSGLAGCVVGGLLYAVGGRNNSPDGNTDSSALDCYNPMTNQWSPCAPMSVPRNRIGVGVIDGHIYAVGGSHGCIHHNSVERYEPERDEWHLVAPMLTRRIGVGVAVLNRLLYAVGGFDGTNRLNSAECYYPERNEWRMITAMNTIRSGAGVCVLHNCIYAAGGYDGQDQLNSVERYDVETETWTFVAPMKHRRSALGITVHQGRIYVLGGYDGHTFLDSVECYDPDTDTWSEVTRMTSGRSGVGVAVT

Structure (SMILES) | IC50 [2, 6] | IC50 ([2]; Table C, unit inferred) | also measured
COc1ccc(S(=O)(=O)N(CC(=O)O)c2cnc(N(CC(=O)O)S(=O)(=O)c3ccc(OC)cc3)c3ccccc23)cc1 [Compound A1, 2,2′-(isoquinoline-1,4-diylbis(((4-methoxyphenyl)sulfonyl)azanediyl))diacetic acid] |  |  | logD [1]: −1.5
COc1ccc(S(=O)(=O)Nc2ncc(N(CC(=O)O)S(=O)(=O)c3ccc(OC)cc3)c3ccccc23)cc1 [Compound A2, N-(1-((4-methoxyphenyl)sulfonamido)isoquinolin-4-yl)-N-((4-methoxyphenyl)sulfonyl)glycine] | 1.2 µM |  | logD at 1 h [1]: -0.5
COc1ccc(S(=O)(=O)N(C)c2ncc(N(CC(=O)O)S(=O)(=O)c3ccc(OC)cc3)c3ccccc23)cc1 [Compound A3, N-(1-((4-methoxy-N-methylphenyl)sulfonamido)isoquinolin-4-yl)-N-((4-methoxyphenyl)sulfonyl)glycine] | 2 µM |  | metabolic stability [3]: significantly more metabolically stable; logD at 1 h [1]: 0
O=C(O)CN(c1cnc(N(CC(=O)O)S(=O)(=O)c2ccc(O)cc2)c2ccccc12)S(=O)(=O)c1ccc(O)cc1 [Compound A4, 2,2′-(isoquinoline-1,4-diylbis(((4-hydroxyphenyl)sulfonyl)azanediyl))diacetic acid] | 0.53 µM |  | binding affinity (in words) [2]: high binding affinities
O=C(O)CN(c1cnc(N(CC(=O)O)S(=O)(=O)c2ccc(F)cc2)c2ccccc12)S(=O)(=O)c1ccc(F)cc1 [Compound A5, 2,2′-(isoquinoline-1,4-diylbis(((4-fluorophenyl)sulfonyl)azanediyl))diacetic acid] | 0.35 µM |  | binding affinity (in words) [2]: high binding affinities
COc1ccc(S(=O)(=O)Nc2cnc(N(CC(=O)O)S(=O)(=O)c3ccc(OC)cc3)c3ccccc23)cc1 [Compound A6, N-(4-((4-methoxyphenyl)sulfonamido)isoquinolin-1-yl)-N-((4-methoxyphenyl)sulfonyl)glycine] | 0.212 µM |  | stabilization of NRF2 expression [4]: stabilize NRF2 expression; levels of NQO1 [5]: increase the levels of NQO1; metabolic stability [3]: degraded substantially; logD [1]: −1.6
COc1ccc(S(=O)(=O)N(C)c2cnc(N(CC(=O)O)S(=O)(=O)c3ccc(OC)cc3)c3ccccc23)cc1 [Compound A8, N-(4-((4-methoxy-N-methylphenyl)sulfonamido)isoquinolin-1-yl)-N-((4-methoxyphenyl)sulfonyl)glycine] | 1.1 µM |  | binding affinity (in words) [2]: significantly diminished the binding affinity; metabolic stability [3]: degraded substantially; logD at 1 h [1]: 0
[2H]C([2H])([2H])N(c1cnc(N(CC(=O)O)S(=O)(=O)c2ccc(OC)cc2)c2ccccc12)S(=O)(=O)c1ccc(OC)cc1 [Compound A9, N-(4-((4-methoxy-N-(methyl-d3)phenyl)sulfonamido)isoquinolin-1-yl)-N-((4-methoxyphenyl)sulfonyl)glycine] | 1.23 µM |  | binding affinity (in words) [2]: significantly diminished the binding affinity; metabolic stability [3]: degraded substantially
COc1ccc(S(=O)(=O)N(CC(F)(F)F)c2cnc(N(CC(=O)O)S(=O)(=O)c3ccc(OC)cc3)c3ccccc23)cc1 [Compound B0, N-(4-((4-methoxy-N-(2,2,2-trifluoroethyl)phenyl)sulfonamido)isoquinolin-1-yl)-N-((4-methoxyphenyl)sulfonyl)glycine] |  |  | logD at 1 h [1]: 0.5
COc1ccc(S(=O)(=O)Nc2cnc(N3CCC[C@@H]3C(=O)O)c3ccccc23)cc1 [Compound C5, (4-((4-methoxyphenyl)sulfonamido)isoquinolin-1-yl)-D-proline] | > 25 µM | > 25 µM | 
COc1ccc(S(=O)(=O)Nc2cnc(N3CCC[C@H]3C(=O)O)c3ccccc23)cc1 [Compound C6, (4-((4-methoxyphenyl)sulfonamido)isoquinolin-1-yl)-L-proline] | 5 µM | 5 µM | 
COc1ccc(S(=O)(=O)Nc2cnc(N3CC[C@@H](c4ccccc4)C3)c3ccccc23)cc1 [Compound C7, (S)-4-methoxy-N-(1-(3-phenylpyrrolidin-1-yl)isoquinolin-4-yl)benzenesulfonamide] | > 25 µM | > 25 µM | 
COc1ccc(S(=O)(=O)Nc2cnc(N3CC[C@H](c4ccccc4)C3)c3ccccc23)cc1 [Compound C8, (R)-4-methoxy-N-(1-(3-phenylpyrrolidin-1-yl)isoquinolin-4-yl)benzenesulfonamide] | > 25 µM | > 25 µM | 
COc1ccc(S(=O)(=O)Nc2ccc(/C=C/C(=O)O)c3ccccc23)cc1 [Compound C9, (E)-3-(4-((4-methoxyphenyl)sulfonamido)naphthalen-1-yl)acrylic acid] | 9.3 µM | 9.3 µM | 
COc1ccc(S(=O)(=O)Nc2ccc(CCC(=O)O)c3ccccc23)cc1 [Compound C11, 3-(4-((4-methoxyphenyl)sulfonamido)naphthalen-1-yl)propanoic acid] | 6 µM | 6 µM | 
COc1ccc(CCc2ccc(NS(=O)(=O)c3ccc(OC)cc3)c3ccccc23)cc1 [Compound C13, 4-methoxy-N-(4-(4-methoxyphenethyl)naphthalen-1-yl)benzenesulfonamide] | > 25 µM | > 25 µM | 

Reference: patent US11396496B2, “1,4-substituted isoquinoline inhibitors of KEAP1/NRF2 protein-protein interaction” (THE BOARD OF TRUSTEES OF THE UNIVERSITY OF ILLINOIS, priority 2018, dated 2022)
